Experimental findings from ChEMBL document CHEMBL1127254, “Induction of endonucleolytic DNA fragmentation and apoptosis by the duocarmycins” (Bioorg Med Chem Lett, 1994) are described below.

Assay [1] is described as follows: Mean concentration required for the compound to inhibit tumor activity in 20 different cell lines was determined. The class given is functional.
The test system of assay [2] is MOLT-4. Put plainly: Induced cell death in Molt-4 cell line at a dose of E-8 M after 20 hour of incubation. The format is functional, Homo sapiens.
The test system of assay [3] is MOLT-4. Put plainly: Induced cell death in Molt-4 cell line at a dose of E-10 M after 1 hour of incubation. The class given is functional, Homo sapiens.
The subject of assay [4] is MOLT-4. Put plainly: Induced cell death in Molt-4 cell line at a dose of E-10 M after 8 hour of incubation. The format is functional, Homo sapiens.
For assay [5], the system named is MOLT-4. Put plainly: Induced cell death in Molt-4 cell line at a dose of E-8 M after 3 hour of incubation. The format is functional, Homo sapiens.
The subject of assay [6] is MOLT-4. Put plainly: Induced cell death in Molt-4 cell line at a dose of E-8 M after 1 hour of incubation. The class given is functional, Homo sapiens.
In assay [7] the test system is MOLT-4. Put plainly: Induced cell death in Molt-4 cell line at a dose of E-8 M after 28 hour of incubation. The class given is functional, Homo sapiens.
For assay [8], the system named is MOLT-4. Put plainly: Induced cell death in Molt-4 cell line at a dose of E-9 M after 20 hour of incubation. The class given is functional, Homo sapiens.
Assay [9] concerns MOLT-4. Nature of the assay: Induced cell death in Molt-4 cell line at a dose of E-10 M after 3 hour of incubation. The format is functional, Homo sapiens.
The test system of assay [10] is MOLT-4. Nature of the assay: Induced cell death in Molt-4 cell line at a dose of E-8 M after 8 hour of incubation. The format is functional, Homo sapiens.
Assay [11] concerns MOLT-4. Nature of the assay: Induced cell death in Molt-4 cell line at a dose of E-9 M after 5 hour of incubation. The format is functional, Homo sapiens.
Assay [12] deals with MOLT-4. Nature of the assay: Induced cell death in Molt-4 cell line at a dose of E-10 M after 20 hour of incubation. The class given is functional, Homo sapiens.
Assay [13] deals with MOLT-4. Nature of the assay: Induced cell death in Molt-4 cell line at a dose of E-9 M after 8 hour of incubation. The class given is functional, Homo sapiens.
The subject of assay [14] is MOLT-4. Nature of the assay: Induced cell death in Molt-4 cell line at a dose of E-10 M after 5 hour of incubation. The format is functional, Homo sapiens.
The test system of assay [15] is MOLT-4. Nature of the assay: Induced cell death in Molt-4 cell line at a dose of E-9 M after 3 hour of incubation. The class given is functional, Homo sapiens.
Assay [16] concerns MOLT-4. Put plainly: Induced cell death in Molt-4 cell line at a dose of E-10 M after 28 hour of incubation. The class given is functional, Homo sapiens.
Assay [17] concerns MOLT-4. Put plainly: Induced cell death in Molt-4 cell line at a dose of E-9 M after 1 hour of incubation. The class given is functional, Homo sapiens.
For assay [18], the system named is MOLT-4. Put plainly: Induced cell death in Molt-4 cell line at a dose of E-9 M after 28 hour of incubation. The class given is functional, Homo sapiens.
Assay [19] has as its system MOLT-4. Put plainly: Induced cell death in Molt-4 cell line at a dose of E-8 M after 5 hour of incubation. The format is functional, Homo sapiens.

Each structure is given as a SMILES string.

On to `COC(=O)[C@]1(C)Nc2c(O)cc3c(c2C1=O)[C@H](CCl)CN3C(=O)c1cc2cc(OC)c(OC)c(OC)c2[nH]1`, for which the IC50 in assay [1] came out at 20 nM.

For `COC(=O)c1cc2c([nH]1)C(=O)C=C1N(C(=O)c3cc4cc(OC)c(OC)c(OC)c4[nH]3)C[C@H]3C[C@]123` [DUOCARMYCIN], the Viability in the assay on MOLT-4 [2] is given as 10%; in the assay with MOLT-4 [3] it was 95%; in the assay with MOLT-4 [4], 65%; in the assay on MOLT-4 [5], 92%; with MOLT-4 [6], 95%; in the assay on MOLT-4 [7] it was 10%. Further, the Viability with MOLT-4 [8] worked out at 15%; in the assay on MOLT-4 [9] it was 95%; in the assay with MOLT-4 [10], 42%; in the assay with MOLT-4 [11], 85%; in the assay with MOLT-4 [12], 58%; with MOLT-4 [13], 52%. The Viability is recorded as 90% in the assay with MOLT-4 [14]; 95% with MOLT-4 [15]; 58% with MOLT-4 [16]; 95% with MOLT-4 [17]; 12% with MOLT-4 [18]; 80% in the assay with MOLT-4 [19]. Also, the half-inhibitory concentration (IC50) in assay [1] amounted to 0.1 nM.

One may read the IC50 as the concentration that gives 50% inhibition. A higher IC50 goes with weaker potency.
